Data from patent US4543408A, “Stable S-adenosylmethionine salts, the process for their preparation, and therapeutic compositions which contain them as active principle” (Bioresearch S.p.A., priority 1981, dated 1985).

assay: not given; format: physicochemical; settings: solid salt storage, 1440 h
Protocol: Stability tests were carried out on the salts prepared in the described manner, by keeping the product in an oven temperature controlled at 45° C. and determining the percentage of residual salt at fixed times. The tests were carried out in comparison with SAM.nHCl salts in which n=1,2 and 3, prepared by the known method (U.S. Pat. No. 2,969,353), and in comparison with SAM.nH2 SO4 salts in which n=0.5,1 and 1.5, also prepared by the known method (West German patent application No. 1,803,978).
The following tables show the percentages of decomposed salt at the times indicated:
Analytical conditions used:
SAM retention time: about 400 seconds.

In order of falling “degradation at 45° C. after 60 days” value:
1. C[S+](CCC(N)C(=O)[O-])CC1OC(n2cnc3c(N)ncnc32)C(O)C1O (stereo not drawn) [SAM.nHCl, n=1, reference compound]  100%
2. C[S+](CCC(N)C(=O)[O-])CC1OC(n2cnc3c(N)ncnc32)C(O)C1O (stereo not drawn) [SAM.nH2 SO4, n=1, reference compound]  80%
3. C[S+](CCC(N)C(=O)[O-])CC1OC(n2cnc3c(N)ncnc32)C(O)C1O (stereo not drawn) [SAM.nHCl, n=3, reference compound]  30%
4. C[S+](CCC(N)C(=O)[O-])CC1OC(n2cnc3c(N)ncnc32)C(O)C1O (stereo not drawn) [SAM.1.5H2 SO4.nHCl, n=1]  5%
5. C[S+](CCC(N)C(=O)[O-])CC1OC(n2cnc3c(N)ncnc32)C(O)C1O (stereo not drawn) [SAM.2HCl.nH2 SO4, n=2]  5%
6. C[S+](CCC(N)C(=O)[O-])CC1OC(n2cnc3c(N)ncnc32)C(O)C1O (stereo not drawn) [SAM.1.5H2 SO4.nHCl, n=3]  5%
7. C[S+](CCC(N)C(=O)[O-])CC1OC(n2cnc3c(N)ncnc32)C(O)C1O (stereo not drawn) [SAM.3H2 SO4.0.7H2 O]  5%
8. C[S+](CCC(N)C(=O)[O-])CC1OC(n2cnc3c(N)ncnc32)C(O)C1O (stereo not drawn) [SAM.4HCl.0.4H2 O]  5%
9. C[S+](CCC(N)C(=O)[O-])CC1OC(n2cnc3c(N)ncnc32)C(O)C1O (stereo not drawn) [SAM.2H2 SO4.0.4H2 O]  5%
10. C[S+](CCC(N)C(=O)[O-])CC1OC(n2cnc3c(N)ncnc32)C(O)C1O (stereo not drawn) [SAM.2HCl.nH2 SO4, n=1]  5%

same assay, conditions: solid salt storage, 2880 h

In order of falling “degradation at 45° C. after 120 days” value:
1. C[S+](CCC(N)C(=O)[O-])CC1OC(n2cnc3c(N)ncnc32)C(O)C1O (stereo not drawn) [SAM.nH2 SO4, n=1, reference compound]  100%
2. C[S+](CCC(N)C(=O)[O-])CC1OC(n2cnc3c(N)ncnc32)C(O)C1O (stereo not drawn) [SAM.nHCl, n=1, reference compound]  100%
3. C[S+](CCC(N)C(=O)[O-])CC1OC(n2cnc3c(N)ncnc32)C(O)C1O (stereo not drawn) [SAM.nHCl, n=3, reference compound]  60%
4. C[S+](CCC(N)C(=O)[O-])CC1OC(n2cnc3c(N)ncnc32)C(O)C1O (stereo not drawn) [SAM.1.5H2 SO4.nHCl, n=1]  10%
5. C[S+](CCC(N)C(=O)[O-])CC1OC(n2cnc3c(N)ncnc32)C(O)C1O (stereo not drawn) [SAM.2HCl.nH2 SO4, n=2]  10%
6. C[S+](CCC(N)C(=O)[O-])CC1OC(n2cnc3c(N)ncnc32)C(O)C1O (stereo not drawn) [SAM.1.5H2 SO4.nHCl, n=3]  10%
7. C[S+](CCC(N)C(=O)[O-])CC1OC(n2cnc3c(N)ncnc32)C(O)C1O (stereo not drawn) [SAM.3H2 SO4.0.7H2 O]  10%
8. C[S+](CCC(N)C(=O)[O-])CC1OC(n2cnc3c(N)ncnc32)C(O)C1O (stereo not drawn) [SAM.4HCl.0.4H2 O]  10%
9. C[S+](CCC(N)C(=O)[O-])CC1OC(n2cnc3c(N)ncnc32)C(O)C1O (stereo not drawn) [SAM.2H2 SO4.0.4H2 O]  10%
10. C[S+](CCC(N)C(=O)[O-])CC1OC(n2cnc3c(N)ncnc32)C(O)C1O (stereo not drawn) [SAM.2HCl.nH2 SO4, n=1]  10%

same assay, conditions: solid salt storage, 4320 h

In order of rising “degradation at 45° C. after 180 days” value:
1. C[S+](CCC(N)C(=O)[O-])CC1OC(n2cnc3c(N)ncnc32)C(O)C1O (stereo not drawn) [SAM.1.5H2 SO4.nHCl, n=1]  14%
2. C[S+](CCC(N)C(=O)[O-])CC1OC(n2cnc3c(N)ncnc32)C(O)C1O (stereo not drawn) [SAM.2HCl.nH2 SO4, n=2]  14%
3. C[S+](CCC(N)C(=O)[O-])CC1OC(n2cnc3c(N)ncnc32)C(O)C1O (stereo not drawn) [SAM.1.5H2 SO4.nHCl, n=3]  14%
4. C[S+](CCC(N)C(=O)[O-])CC1OC(n2cnc3c(N)ncnc32)C(O)C1O (stereo not drawn) [SAM.3H2 SO4.0.7H2 O]  14%
5. C[S+](CCC(N)C(=O)[O-])CC1OC(n2cnc3c(N)ncnc32)C(O)C1O (stereo not drawn) [SAM.4HCl.0.4H2 O]  14%
6. C[S+](CCC(N)C(=O)[O-])CC1OC(n2cnc3c(N)ncnc32)C(O)C1O (stereo not drawn) [SAM.2H2 SO4.0.4H2 O]  14%
7. C[S+](CCC(N)C(=O)[O-])CC1OC(n2cnc3c(N)ncnc32)C(O)C1O (stereo not drawn) [SAM.2HCl.nH2 SO4, n=1]  14%
8. C[S+](CCC(N)C(=O)[O-])CC1OC(n2cnc3c(N)ncnc32)C(O)C1O (stereo not drawn) [SAM.nHCl, n=3, reference compound]  80%
9. C[S+](CCC(N)C(=O)[O-])CC1OC(n2cnc3c(N)ncnc32)C(O)C1O (stereo not drawn) [SAM.nH2 SO4, n=1, reference compound]  100%
10. C[S+](CCC(N)C(=O)[O-])CC1OC(n2cnc3c(N)ncnc32)C(O)C1O (stereo not drawn) [SAM.nHCl, n=1, reference compound]  100%

same assay, conditions: solid salt storage, 5760 h

In order of falling “degradation at 45° C. after 240 days” value:
1. C[S+](CCC(N)C(=O)[O-])CC1OC(n2cnc3c(N)ncnc32)C(O)C1O (stereo not drawn) [SAM.nH2 SO4, n=1, reference compound]  100%
2. C[S+](CCC(N)C(=O)[O-])CC1OC(n2cnc3c(N)ncnc32)C(O)C1O (stereo not drawn) [SAM.nHCl, n=3, reference compound]  100%
3. C[S+](CCC(N)C(=O)[O-])CC1OC(n2cnc3c(N)ncnc32)C(O)C1O (stereo not drawn) [SAM.nHCl, n=1, reference compound]  100%
4. C[S+](CCC(N)C(=O)[O-])CC1OC(n2cnc3c(N)ncnc32)C(O)C1O (stereo not drawn) [SAM.1.5H2 SO4.nHCl, n=1]  17%
5. C[S+](CCC(N)C(=O)[O-])CC1OC(n2cnc3c(N)ncnc32)C(O)C1O (stereo not drawn) [SAM.2HCl.nH2 SO4, n=2]  17%
6. C[S+](CCC(N)C(=O)[O-])CC1OC(n2cnc3c(N)ncnc32)C(O)C1O (stereo not drawn) [SAM.1.5H2 SO4.nHCl, n=3]  17%
7. C[S+](CCC(N)C(=O)[O-])CC1OC(n2cnc3c(N)ncnc32)C(O)C1O (stereo not drawn) [SAM.3H2 SO4.0.7H2 O]  17%
8. C[S+](CCC(N)C(=O)[O-])CC1OC(n2cnc3c(N)ncnc32)C(O)C1O (stereo not drawn) [SAM.4HCl.0.4H2 O]  17%
9. C[S+](CCC(N)C(=O)[O-])CC1OC(n2cnc3c(N)ncnc32)C(O)C1O (stereo not drawn) [SAM.2H2 SO4.0.4H2 O]  17%
10. C[S+](CCC(N)C(=O)[O-])CC1OC(n2cnc3c(N)ncnc32)C(O)C1O (stereo not drawn) [SAM.2HCl.nH2 SO4, n=1]  17%

same assay, conditions: solid salt storage, 8640 h

In order of rising “degradation at 45° C. after 360 days” value:
1. C[S+](CCC(N)C(=O)[O-])CC1OC(n2cnc3c(N)ncnc32)C(O)C1O (stereo not drawn) [SAM.1.5H2 SO4.nHCl, n=1]  20%
2. C[S+](CCC(N)C(=O)[O-])CC1OC(n2cnc3c(N)ncnc32)C(O)C1O (stereo not drawn) [SAM.2HCl.nH2 SO4, n=2]  20%
3. C[S+](CCC(N)C(=O)[O-])CC1OC(n2cnc3c(N)ncnc32)C(O)C1O (stereo not drawn) [SAM.1.5H2 SO4.nHCl, n=3]  20%
4. C[S+](CCC(N)C(=O)[O-])CC1OC(n2cnc3c(N)ncnc32)C(O)C1O (stereo not drawn) [SAM.3H2 SO4.0.7H2 O]  20%
5. C[S+](CCC(N)C(=O)[O-])CC1OC(n2cnc3c(N)ncnc32)C(O)C1O (stereo not drawn) [SAM.4HCl.0.4H2 O]  20%
6. C[S+](CCC(N)C(=O)[O-])CC1OC(n2cnc3c(N)ncnc32)C(O)C1O (stereo not drawn) [SAM.2H2 SO4.0.4H2 O]  20%
7. C[S+](CCC(N)C(=O)[O-])CC1OC(n2cnc3c(N)ncnc32)C(O)C1O (stereo not drawn) [SAM.2HCl.nH2 SO4, n=1]  20%
8. C[S+](CCC(N)C(=O)[O-])CC1OC(n2cnc3c(N)ncnc32)C(O)C1O (stereo not drawn) [SAM.nH2 SO4, n=1, reference compound]  100%
9. C[S+](CCC(N)C(=O)[O-])CC1OC(n2cnc3c(N)ncnc32)C(O)C1O (stereo not drawn) [SAM.nHCl, n=3, reference compound]  100%
10. C[S+](CCC(N)C(=O)[O-])CC1OC(n2cnc3c(N)ncnc32)C(O)C1O (stereo not drawn) [SAM.nHCl, n=1, reference compound]  100%

assay: Residual moisture; format: physicochemical; settings: Tables 1-4, salts lyophilised without support

In order of rising residual moisture:
1. C[S+](CCC(N)C(=O)[O-])CC1OC(n2cnc3c(N)ncnc32)C(O)C1O (stereo not drawn) [SAM.nHCl, n=1, reference compound]  0.2%
2. C[S+](CCC(N)C(=O)[O-])CC1OC(n2cnc3c(N)ncnc32)C(O)C1O (stereo not drawn) [SAM.nH2 SO4, n=1, reference compound]  0.5%
3. C[S+](CCC(N)C(=O)[O-])CC1OC(n2cnc3c(N)ncnc32)C(O)C1O (stereo not drawn) [SAM.nHCl, n=3, reference compound]  0.8%
4. C[S+](CCC(N)C(=O)[O-])CC1OC(n2cnc3c(N)ncnc32)C(O)C1O (stereo not drawn) [SAM.1.5H2 SO4.nHCl, n=1]  1%
5. C[S+](CCC(N)C(=O)[O-])CC1OC(n2cnc3c(N)ncnc32)C(O)C1O (stereo not drawn) [SAM.2HCl.nH2 SO4, n=1]  1%
6. C[S+](CCC(N)C(=O)[O-])CC1OC(n2cnc3c(N)ncnc32)C(O)C1O (stereo not drawn) [SAM.2HCl.nH2 SO4, n=2]  2%
7. C[S+](CCC(N)C(=O)[O-])CC1OC(n2cnc3c(N)ncnc32)C(O)C1O (stereo not drawn) [SAM.1.5H2 SO4.nHCl, n=3]  2%

same assay, conditions: Tables 1-4, salts lyophilised without support; listed as SAM.nH2 SO4, n=2

`C[S+](CCC(N)C(=O)[O-])CC1OC(n2cnc3c(N)ncnc32)C(O)C1O` (stereo not drawn) [SAM.2H2 SO4.0.4H2 O] showed a residual moisture of 1%.

same assay, conditions: Tables 1-4, salts lyophilised without support; listed as SAM.nH2 SO4, n=3

In the case of `C[S+](CCC(N)C(=O)[O-])CC1OC(n2cnc3c(N)ncnc32)C(O)C1O` (stereo not drawn) [SAM.3H2 SO4.0.7H2 O], the residual moisture is reported as 2%.

same assay, conditions: Tables 1-4, salts lyophilised without support; listed as SAM.nHCl, n=4

Work on `C[S+](CCC(N)C(=O)[O-])CC1OC(n2cnc3c(N)ncnc32)C(O)C1O` (stereo not drawn) [SAM.4HCl.0.4H2 O] yielded a residual moisture of 1%.
